Source: patent US20150315218A1, “SALTS OF PRODRUGS OF PIPERAZINE AND SUBSTITUTED PIPERIDINE ANTIVIRAL AGENTS” (Bristol-Myers Squibb Company, priority 2004, published 2015)
Values after ≈ are worked out from the molar mass of the structure shown. Values joined by “and” are separate entries in the source; they are usually repeats but may differ in a detail not shown here. Identical values can stand only once. Counter-ions that a name gives are not always drawn. Like-named read-outs stand apart in the source and are kept apart here.

Key:
[1] = system: HIV-1 T-tropic strain LAI; experiment: Antiviral assay: HIV-1 LAI infection of MT-2 cells, reverse transcriptase readout (EC50, Table 48); assay type: cell-based; conditions: Human immunodeficiency virus 1, MT2; read-out: EC50-LAI
From the text: The materials and experimental procedures used to assess the anti-HIV activity of the parent compounds which are generated from the prodrugs in vivo are described below:
• The human T cell line MT-2 and PM1 (AIDS Research and Reference Reagent Program, National Institutes of Health) were maintained and propagated in Medium RPMI-1640 (Invitrogen, Carlsbad, Calif.), containing 10% fetal Bovine serum. (FBS, Sigma, St. Louis, Mo.).
• Laboratory strains of HIV-1—the T-tropic strain LAI was obtained through the AIDS Research and Reference Reagent Program, National Institutes of Health. It was amplified in MT-2 cells and titered using a virus yield assay (2). Detection was achieved through use of a reverse transcriptase assay (3), adapted for use with a Scintillation Proximity detection protocol (1) (Amersham Biosciences, Piscataway, N.J.).
• 1. Compounds stocks were prepared by dissolving in DMSO to 30 mM. For dilution plates, compounds were serially diluted 3-fold into DMSO, using 96-well polypropylene plates, so that the concentrations were 100-fold greater than the final assay concentration. For antiviral and cytotoxicity assays, 2 μl was added per well (1% final DMSO concentration). • 2. Compounds were added from dilution plates to 96 well tissue culture plates, containing 100 μl Medium RPMI-1640, containing 10% fetal bovine serum at a concentration of <20 μM. • 3. For antiviral assays, cells were infected at a multiplicity of infection of 0.005. After 1 h at 37° C., infected cells were diluted to 200,000 cells per ml in Medium RPMI-1640, containing 10% fetal bovine serum. 100 μl of this solution was added per well, giving a final volume of 200 μl. • 4. Plates were incubated at 37° C. in a humidified CO2 incubator and harvested after 5 days. • 5. Viral infections were monitored by measuring reverse transcriptase activity in the supernatants of infected wells as described above. The percent inhibition for each compound was calculated by quantifying the readout level in cells infected in the presence of each compound as a percentage of that observed for cells infected in the absence of compound and subtracting such a determined value from 100. • 6. An EC50 provides a method for comparing the antiviral potency of the compounds of this invention. The effective concentration for fifty percent inhibition (EC50) was calculated with the Microsoft Excel Xlfit curve fitting software. For each compound, curves were generated from percent inhibition calculated at 8 different concentrations by using a four paramenter logistic model (model 205).

physchem = conditions: thermodynamic from solid
[2] = Stability (hydrolysis) of prodrug in fresh serum (dog); conditions: Dog Serum
Protocol: (§2) The stability of Iab was studied in fresh blood and serum from rat, dog, monkey and human (n=2). The blood was collected in vacutainers containing K2EDTA (Becton Dickinson, Franklin Lakes, N.J.). The serum was collected in vacutainers containing no anticoagulant. Iab was incubated at a starting concentration of approximately 10 μM for 60-90 min at 37° C. Serial samples were taken at the pre-determined times. Aliquots of blood samples (200 μL) were first mixed with 100 μL of water followed by 400 μL of acetonitrile. The serum samples (50 μL) were added into microtainers containing K2EDTA (Becton Dickinson, Franklin Lakes, N.J.) followed by the addition of 100 μL of acetonitrile. The supernatant was analyzed for both Iab and IVa by LC/MS/MS. The stability of Ibb was studied in fresh blood and serum from rat, dog, monkey and human (n=2). The blood was collected in vacutainers containing K2EDTA (Becton Dickinson, Franklin Lakes, N.J.). The serum was collected in vacutainers containing no anticoagulant. Ibb was incubated at a starting concentration of approximately 15 μM for 90 min at 37° C. Serial samples were taken at the pre-determined times. Aliquots of blood samples (200 μL) were first mixed with 100 μL of water followed by 400 μL of acetonitrile. The serum samples (50 μL) were added into microtainers containing K2EDTA (Becton Dickinson, Franklin Lakes, N.J.) followed by the addition of 100 μL of acetonitrile. […] The stability of Icb was studied in fresh blood and serum from rat, dog, monkey and human (n=2). The blood was collected in vacutainers containing K2EDTA (Becton Dickinson, Franklin Lakes, N.J.). The serum was collected in vacutainers containing no anticoagulant. Icb was incubated at a starting concentration of approximately 10 μM for 90 min at 37° C. Serial samples were taken at the pre-determined times. Aliquots of blood samples (200 μL) were first mixed with 100 μL of water followed by 400 μL of acetonitrile. The serum samples (50 μL) were added into microtainers containing K2EDTA (Becton Dickinson, Franklin Lakes, N.J.) followed by the addition of 100 μL of acetonitrile.

[3] = Stability of prodrug in fresh EDTA blood (rat); conditions: for % IVa Formed (of starting concentration of Iab) / Iab / IVa Formed: Rat EDTA blood
Protocol: as §2

[4] = Stability of prodrug in fresh EDTA blood (monkey); conditions: Monkey EDTA blood
Protocol: as §2

[5] = Stability (hydrolysis) of prodrug in fresh serum (rat); conditions: Rat Serum
human hepatocytes = experiment: Hydrolysis of prodrug in hepatocytes (human); assay type: in vitro ADME
Protocol: (§1) The in vitro intrinsic clearance of Ibb in hepatocytes (Clint) was calculated as follows: Clint(μL/min/million cells)=Rate/CE where Rate is the rate of metabolism in hepatocytes (pmol/min/million cells), and CE is the concentration of Ibb in the incubation. The in vitro intrinsic clearance of Icb in hepatocytes (Clint) was calculated as follows: Clint(μL/min/million cells)=Rate/CE where Rate is the rate of metabolism in hepatocytes (pmol/min/million cells), and CE is the concentration of Icb in the incubation.

in vitro [6] = conditions: dog, serum
Protocol: as §2

rat hepatocytes = experiment: Hydrolysis of prodrug in hepatocytes (rat); assay type: in vitro ADME
Protocol: as §1

in vitro [7] = conditions: monkey, serum

Row | SMILES | EC50 [1] [nM] | solubility (physchem; aqueous, aqueous buffer) [µg/mL] | Iab / IVa Formed ([2]; 37°C, 0 min) [µM] | Iab / IVa Formed ([2]; 15 min) [µM] | Iab / IVa Formed ([2]; 30 min) [µM] | Iab / IVa Formed ([2]; 45 min) [µM] | Iab / IVa Formed ([2]; 60 min) [µM] | Iab / IVa Formed ([2]; 90 min) [µM] | Iab / IVa Formed ([3]; 37°C, 0 min) [µM] | Iab / IVa Formed ([3]; 20 min) [µM] | Iab / IVa Formed ([3]; 40 min) [µM] | Iab / IVa Formed ([3]; 60 min) [µM] | Iab / IVa Formed ([4]; 0 min) [µM] | Iab / IVa Formed ([4]; 20 min) [µM] | Iab / IVa Formed ([4]; 40 min) [µM] | Iab / IVa Formed ([4]; 60 min) [µM] | Iab / IVa Formed ([5]; 37°C, 0 min) [µM] | Iab / IVa Formed ([5]; 15 min) [µM] | Iab / IVa Formed ([5]; 30 min) [µM] | Iab / IVa Formed ([5]; 45 min) [µM] | further results
1 | COc1ncc(OC)c2c(C(=O)C(=O)N3CCN(C(=O)c4ccccc4)CC3)c[nH]c12 [IVa, N-(benzoyl)-N′-[(4,7-dimethoxy-6-azaindol-3-yl)-oxoacetyl]piperazine] | < 1000 | 40 to 900 (≈ 94.7 to 2130 µM) | 0.066 | 0.85 | 1.6 | 2.5 | 3.2 | 4.4 | 0.019 | 0.056 | 0.072 | 0.093 | 0.011 | 0.024 | 0.041 | 0.048 | 0.25 | 1.1 | 1.8 | 2.8 | % IVa Formed (of starting concentration of Iab) ([3]; 0 min): 0.24%; % IVa Formed (of starting concentration of Iab) ([3]; 20 min): 0.70%; % IVa Formed (of starting concentration of Iab) ([3]; 40 min): 0.90%; % IVa Formed (of starting concentration of Iab) ([3]; 60 min): 1.2%; % IVa Formed (of starting concentration of Iab) ([4]; 0 min): 0.13%; % IVa Formed (of starting concentration of Iab) ([4]; 20 min): 0.28%; % IVa Formed (of starting concentration of Iab) ([4]; 40 min): 0.48%; % IVa Formed (of starting concentration of Iab) ([4]; 60 min): 0.56%; Iab / IVa Formed ([5]; 60 min): 3.7 µM; Iab / IVa Formed ([5]; 90 min): 5.4 µM
2 | O=C(C(=O)N1CCN(C(=O)c2ccccc2)CC1)c1c[nH]c2c(-n3ccnn3)ncc(F)c12 [IVb] | < 1000 | 7 to 190 (≈ 15.6 to 425 µM) | – | – | – | – | – | – | – | – | – | – | – | – | – | – | – | – | – | – | –
3 | COc1cnc(-n2cnc(C)n2)c2[nH]cc(C(=O)C(=O)N3CCN(C(=O)c4ccccc4)CC3)c12 [IVc] | < 1000 | – | – | – | – | – | – | – | – | – | – | – | – | – | – | – | – | – | – | – | –
4 | COc1cnc(OC)c2c1c(C(=O)C(=O)N1CCN(C(=O)c3ccccc3)CC1)cn2COP(=O)(O)O [Iab, {3-[(4-benzoylpiperazin-1-yl)(oxo)acetyl]-4,7-dimethoxy-1H-pyrrolo[2,3-c]pyridin-1-yl}methyl dihydrogen phosphate, L-lysine salt (1:1)] | – | – | 9.2 | 9.0 | 7.8 | 7.8 | 7.1 | 6.7 | 8.0 | 8.8 | 10 | 10 | 8.5 | 9.2 | 9.2 | 8.7 | 6.8 | 5.8 | 5.4 | 4.9 | hydrolysis in the presence of hepatocytes (human hepatocytes; human hepatocytes, qualitative): hydrolyzed; half-life at 10 μM (in vitro [6]): 182 min; hydrolysis in the presence of hepatocytes (rat hepatocytes; rat hepatocytes, qualitative): hydrolyzed; solubility (physchem; aqueous solution, aqueous buffer): > 12000 µg/mL; solubility (physchem; aqueous solution, pH 1.4, simulated gastric fluid): 220 µg/mL; half-life at 10 μM (in vitro [7]): 365 min; conversion of prodrug to parent in blood containing EDTA ([3]; rat blood, 37°C, 60 min (Iab) or 90 min (Ibb, Icb)): < 2% and 1.2%; Iab / IVa Formed ([5]; 60 min): 4.3 µM; Iab / IVa Formed ([5]; 90 min): 3.3 µM
5 | COc1cnc(-n2cnc(C)n2)c2c1c(C(=O)C(=O)N1CCN(C(=O)c3ccccc3)CC1)cn2COP(=O)(O)O [Icb, [3-[(4-benzoylpiperazin-1-yl)(oxo)acetyl]-4-methoxy-7-(3-methyl-1H-1,2,4-triazol-1-yl)-1H-pyrrolo[2,3-c]pyridin-1-yl]methyl dihydrogen phosphate, 2-amino-2-(hydroxymethyl)propane-1,3-diol salt (1:1)] | – | – | – | – | – | – | – | – | – | – | – | – | – | – | – | – | – | – | – | – | hydrolysis in the presence of hepatocytes (human hepatocytes): hydrolyzed; half-life at 10 μM (in vitro [6]): 156 min; hydrolysis in the presence of hepatocytes (rat hepatocytes): hydrolyzed; half-life at 10 μM (in vitro [7]): 30 min
